Measured values from patent US8951997B2, “Substituted isoquinoline derivative” (D. Western Therapeutics Institute, Inc., priority 2009, dated 2015).
Where a name gives a salt, the structure may show the parent alone.

test system: rabbits (New Zealand White); assay: Ocular hypotensive effect in rabbits; type: in vivo, rabbit; details: Oryctolagus cuniculus, topical, 0.04 mL dropped to one eye, vehicle to contralateral eye, test compound solution concentration 10 (W/V), read-out: Maximum ocular hypotensive rate
Experimental: The compound of the present invention was administered to rabbits (New Zealand White, sex: male, 3 to 7 per group) and evaluated for its ocular hypotensive effect.
Each test compound was dissolved in a vehicle (1.04 g of sodium dihydrogen phosphate dihydrate and 0.5 g of sodium chloride dissolved in purified water and then adjusted to pH 7.0 with sodium hydroxide to make the total amount to 100 mL) to prepare a test compound solution with a concentration of 10 (W/V).
The intraocular pressures of the rabbits were measured using Tiolat TonoVet handheld tonometer immediately before administration of test compound. The test compound solution and the vehicle were dropped at a volume of 0.04 mL to one eye and the contralateral eye, respectively, and the intraocular pressures were measured over time in the same way as above. The rate of the intraocular pressure of the eye receiving the test compound solution to that of the eye receiving the vehicle was calculated as an ocular hypotensive rate.

Row | SMILES | inhibition in vivo at 10 % [%]
1 | C[C@@H]1CCN(S(=O)(=O)c2ccc3cnccc3c2)CCNC1 [Example 30, (R)-6-(6-methyl-1,4-diazocan-1-ylsulfonyl)isoquinoline dihydrochloride] | ≥ 15
2 | C[C@@H]1CNCCCCN1S(=O)(=O)c1ccc2cnccc2c1Br [Example 23, (R)-5-bromo-6-(2-methyl-1,4-diazocan-1-ylsulfonyl)isoquinoline dihydrochloride] | ≥ 15
3 | C[C@@H]1CNCCCN1S(=O)(=O)c1cc2ccncc2cc1F [Example 25, (R)-6-(2-methyl-1,4-diazepan-1-ylsulfonyl)-7-fluoroisoquinoline dihydrochloride] | ≥ 15
4 | O=S(=O)(c1ccc2cnccc2c1)N1CCCNC[C@H]1CF [Example 26, (S)-6-(2-fluoromethyl-1,4-diazepan-1-ylsulfonyl)isoquinoline dihydrochloride] | ≥ 15
5 | C[C@@H]1CNCCNCCN1S(=O)(=O)c1ccc2cnccc2c1 [Example 44, (R)-6-(2-methyl-1,4,7-triazonan-1-ylsulfonyl)isoquinoline trihydrochloride] | ≥ 15
6 | C[C@@H]1CNCCCCCN1S(=O)(=O)c1ccc2cnccc2c1 [Example 33, (R)-6-(2-methyl-1,4-diazonan-1-ylsulfonyl)isoquinoline dihydrochloride] | ≥ 15
7 | C[C@H]1CCNC[C@H](C)N1S(=O)(=O)c1ccc2cnccc2c1 [Example 41, (2S,7S)-6-(2,7-dimethyl-1,4-diazepan-1-ylsulfonyl)isoquinoline dihydrochloride] | ≥ 15
8 | CNCC(=O)N1CCCCN(S(=O)(=O)c2ccc3cnccc3c2)[C@H](C)C1 [Example 48, (R)-6-(4-sarcosyl-2-methyl-1,4-diazocan-1-ylsulfonyl)isoquinoline dihydrochloride] | 5 to 15
9 | C[C@@H]1CNCCCN1S(=O)(=O)c1ccc2cnccc2c1Br [Example 29, (R)-5-bromo-6-(2-methyl-1,4-diazepan-1-ylsulfonyl)isoquinoline dihydrochloride] | ≥ 15
10 | NC1CCN(S(=O)(=O)c2ccc3cnccc3c2)CC1 [Example 4, 6-(4-aminopiperidin-1-ylsulfonyl)isoquinoline dihydrochloride] | 5 to 15
11 | N[C@@H]1CCN(S(=O)(=O)c2ccc3cnccc3c2)C1 [Example 2, (R)-6-(3-aminopyrrolidin-1-ylsulfonyl)isoquinoline dihydrochloride] | ≥ 15
12 | CN[C@H]1CCN(S(=O)(=O)c2ccc3cnccc3c2)C1 [Example 10, (S)-6-{3-(N-methylamino)pyrrolidin-1-ylsulfonyl}isoquinoline dihydrochloride] | 5 to 15
13 | C[C@@H]1CNCCOCCN1S(=O)(=O)c1ccc2cnccc2c1 [Example 43, (R)-6-(5-methyl-1,4,7-oxadiazonan-4-ylsulfonyl)isoquinoline dihydrochloride] | ≥ 15
14 | CC[C@@H]1CNCCCN1S(=O)(=O)c1ccc2cnccc2c1 [Example 19, (R)-6-(2-ethyl-1,4-diazepan-1-ylsulfonyl)isoquinoline dihydrochloride] | ≥ 15
15 | O=S(=O)(c1cc(F)c2cnccc2c1)N1CCCNCC1 [Example 6, 6-(1,4-diazepan-1-ylsulfonyl)-8-fluoroisoquinoline dihydrochloride] | 5 to 15
16 | O=S(=O)(c1ccc2cnccc2c1)N1CCCCNCC1 [Example 21, 6-(1,4-diazocan-1-ylsulfonyl)isoquinoline dihydrochloride] | ≥ 15
17 | C[C@H]1CNCCCN1S(=O)(=O)c1ccc2cnccc2c1 [Example 12, (S)-6-(2-methyl-1,4-diazepan-1-ylsulfonyl)isoquinoline dihydrochloride] | ≥ 15

Row | SMILES | inhibition in vivo at 10 % [%]
18 | C[C@H]1CCNCCCN1S(=O)(=O)c1ccc2cnccc2c1 [Example 42, (S)-6-(2-methyl-1,5-diazocan-1-ylsulfonyl)isoquinoline dihydrochloride] | ≥ 15
19 | C[C@H]1CNCCCCCN1S(=O)(=O)c1ccc2cnccc2c1 [Example 28, (S)-6-(2-methyl-1,4-diazonan-1-ylsulfonyl)isoquinoline dihydrochloride] | ≥ 15
20 | C[C@@H]1CCNC[C@H](C)N1S(=O)(=O)c1ccc2cnccc2c1 [Example 36, (2S,7R)-6-(2,7-dimethyl-1,4-diazepan-1-ylsulfonyl)isoquinoline dihydrochloride] | ≥ 15
21 | C[C@@H]1CN(C(=O)CN)CCCCN1S(=O)(=O)c1ccc2cnccc2c1 [Example 47, (R)-6-(4-glycyl-2-methyl-1,4-diazocan-1-ylsulfonyl)isoquinoline dihydrochloride] | 5 to 15
22 | C[C@@H]1CNCCCCN1S(=O)(=O)c1ccc2cnccc2c1[N+](=O)[O-] [Example 39, (R)-6-(2-methyl-1,4-diazocan-1-ylsulfonyl)-5-nitroisoquinoline dihydrochloride] | ≥ 15
23 | CC1CN(S(=O)(=O)c2ccc3cnccc3c2)CCCN1 (stereo not drawn) [Example 16, 6-(3-methyl-1,4-diazepan-1-ylsulfonyl)isoquinoline dihydrochloride] | ≥ 15
24 | C[C@H]1CNCCN1S(=O)(=O)c1ccc2cnccc2c1 [Example 13, (S)-6-(2-methylpiperazin-1-ylsulfonyl)isoquinoline dihydrochloride] | ≥ 15
25 | CC[C@@H]1CNCCCCN1S(=O)(=O)c1ccc2cnccc2c1 [Example 20, (R)-6-(2-ethyl-1,4-diazocan-1-ylsulfonyl)isoquinoline dihydrochloride] | ≥ 15
26 | O=S(=O)(c1ccc2cnccc2c1)N1CCNCC1 [Example 1, 6-(piperazin-1-ylsulfonyl)isoquinoline dihydrochloride] | ≥ 15
27 | CC1CCNCCN1S(=O)(=O)c1ccc2cnccc2c1 (stereo not drawn) [Example 17, 6-(7-methyl-1,4-diazepan-1-ylsulfonyl)isoquinoline dihydrochloride] | ≥ 15
28 | C[C@@H]1CCNCCN(S(=O)(=O)c2ccc3cnccc3c2)C1 [Example 31, (R)-6-(7-methyl-1,4-diazocan-1-ylsulfonyl)isoquinoline dihydrochloride] | ≥ 15
29 | C[C@H]1CNCCCCN1S(=O)(=O)c1ccc2cnccc2c1 [Example 24, (S)-6-(2-methyl-1,4-diazocan-1-ylsulfonyl)isoquinoline dihydrochloride] | ≥ 15
30 | O=S(=O)(c1ccc2cnccc2c1)N1CCCCNCC1CF (stereo in doubt) [Example 27, (R)-6-(2-fluoromethyl-1,4-diazocan-1-ylsulfonyl)isoquinoline dihydrochloride] | ≥ 15
31 | C[C@@H]1CNC[C@@H](C)N1S(=O)(=O)c1ccc2cnccc2c1 [Example 40, (2R,6R)-6-(2,6-dimethylpiperazin-1-ylsulfonyl)isoquinoline dihydrochloride] | ≥ 15
32 | NCC(=O)N1CCCN(S(=O)(=O)c2ccc3cnccc3c2)CC1 [Example 45, 6-(4-glycyl-1,4-diazepan-1-ylsulfonyl)isoquinoline dihydrochloride] | 5 to 15
33 | C[C@@H]1CNC/C=C\CN1S(=O)(=O)c1ccc2cnccc2c1 [Example 8, (R,Z)-6-(2-methyl-2,3,4,5-tetrahydro-1,4-diazocin-1(8H)-ylsulfonyl)isoquinoline dihydrochloride] | ≥ 15
